Experimental data from patent publication US20220211710A1, “COMPOSITIONS AND METHODS FOR TREATING CANCER WITH NUCLEOSIDE-METABOLISM MODULATORS” (The Regents of the University of California, priority 2019, published 2022).

Experiments:
Format in all cases: cell-based, human
SUIT2 SAMHD1 KO cells [1] = test: Immunoblot analysis, SUIT2 SAMHD1 knockout
Method: (§1) PBS-washed cell pellets were re-suspended in cold RIPA buffer supplemented with protease and phosphatase inhibitors. Protein lysates were normalized using BCA assay, diluted using RIPA and 4× laemmli loading dye, resolved on 4-12% Bis-Tris gels and electro-transferred to nitrocellulose membranes. After blocking with 5% nonfat milk in TBS+0.1% Tween-20 (TBS-T), membranes were incubated overnight in primary antibodies diluted (per manufacturers instructions) in 5% BSA in TBS-T. Membranes were washed with TBST-T and incubated with HRP-linked secondary antibodies prepared at a 1:2500 dilution in 5% nonfat dry milk in TBS-T. HRP was activated by incubating membranes with a mixture of SuperSignal Pico and SuperSignal Femto ECL reagents (100:1 ratio). Exposure of autoradiography film was used for detection.

SUIT2 SAMHD1 KO cells [2] = test: Crystal violet proliferation analysis, SUIT2 SAMHD1 knockout; details: 7 d
Method: (§2) For crystal violet staining, cells were plated in 6-well cell culture plates at 1×10^4 cells/well and treated as described. Following treatment cells were fixed by incubating in 4% PFA in PBS for 15 m at room temperature. Plates were subsequently washed with PBS and stained with 0.1% crystal violet in H2O for 15 m at room temperature.

HCC827 cells [3] = test: Cell Titer Glo proliferation, HCC827; details: for IC50: Homo sapiens, HCC827, 72 h, +10 μM dG
Method: (§3) For CellTiter-Glo analysis cells were plated at 1×10^3 cells/well in 50 μl/well in white opaque 384-well plates and treated as described. Following incubation 50 μl of CellTiter-Glo reagent (Diluted 1:5 in dH2O) was added to each well, plates incubated at room temperature for 5 m and luminescence was measured using a BioTek microplate luminescence reader. Proliferation rate normalized growth inhibition was calculated using the previously described GR metric (Hafner et al., 2016).

JURKAT cells = test: Cell Titer Glo proliferation, JURKAT
Method: as §3

CCRF-CEM cells [4] = test: Cell Titer Glo proliferation, CCRF-CEM (YFP control)
Method: as §3

NALM6 cells [5] = test: Cell Titer Glo proliferation, NALM6; details: NALM6 (SAMHD1-proficient), 72 h, +1 μM dG
Method: as §3

SUIT2 cells [6] = test: Cell Titer Glo proliferation, SUIT2 wild-type; details: SUIT2 (SAMHD1-proficient), 72 h, +5 μM dG
Method: as §3

SUIT2 SAMHD1 KO cells [7] = test: Cell Titer Glo proliferation, SUIT2 SAMHD1 knockout; details: 72 h
Method: as §3

[8] = system: CCRF-CEM SAMHD1 over-expressing cells; test: Cell Titer Glo proliferation, CCRF-CEM SAMHD1 over-expressing
Method: as §3

MOLT-4 cells = test: Cell Titer Glo proliferation, MOLT-4; details: MOLT-4, 5 μM dG + 1 μM BCX-1777, 72 h
Method: as §3

B-ALL cell lines = test: Cell Titer Glo proliferation, B-ALL models; details: 5 μM dG + 1 μM BCX-1777, 72 h
Method: as §3

[9] = system: CCRF-CEM CDA over expressing cells; test: Cell Titer Glo proliferation, CCRF-CEM CDA over-expressing; details: CCRF-CEM overexpressing CDA, 10 μM dG + 1 μM BCX-1777 + dC, 72 h
Method: as §3

T-ALL cell lines = test: Propidium iodide cell cycle analysis, T-ALL models; details: T-ALL models only, 5 μM dG + 1 μM BCX-1777, 24 h
Method: (§4) Treated cells were washed with PBS and suspended in propidium iodide cell cycle staining solution (100 μg/ml propidium iodide; 20 μg/ml Ribonuclease A). 10,000 events were collected per sample. All flow cytometry data were acquired on five-laser BD LSRII, and analyzed using FlowJo software (Tree Star).

CCRF-CEM cells [10] = test: Immunoblot analysis, CCRF-CEM; details: 5 μM dG + 1 μM BCX-1777, 24 h
Method: as §1

NALM6 cells [11] = test: Immunoblot analysis, NALM6; details: NALM6, 5 μM dG + 1 μM BCX-1777, 24 h
Method: as §1

[12] = system: CCRF-CEM SAMHD1 over-expressing cells; test: Propidium iodide cell cycle analysis, CCRF-CEM SAMHD1 over-expressing; details: CCRF-CEM expressing SAMHD1, 5 μM dG + 1 μM BCX-1777, 24 h
Method: as §4

HCC827 cells [13] = test: Propidium iodide cell cycle analysis, HCC827; details: HCC827, 5 μM dG + 1 μM BCX-1777, 24 h
Method: as §4

HCC827 cells [14] = test: Crystal violet proliferation analysis, HCC827; details: HCC827, 5 μM dG + 1 μM PNPi, 7 d
Method: as §2

SUIT2 cells [15] = test: Immunoblot analysis, SUIT2 wild-type; details: SUIT2 parental, 5 μM dG + 1 μM forodesine, 24 h
Method: as §1

[16] = system: SAMHD1-deficient primary melanoma cell lines; test: Crystal violet proliferation analysis, SAMHD1-deficient primary melanoma models; details: 1 μM PNPi + 10 μM dG, 7 d
Method: as §2

[17] = system: SAMHD1-deficient primary melanoma cell lines; test: Propidium iodide cell cycle analysis, SAMHD1-deficient primary melanoma models; details: only SAMHD1-deficient melanoma models, 1 μM PNPi + 10 μM dG, 24 h
Method: as §4

(R)-DI-82 [dCK inhibitor] was tested, and the “effect of dCK inhibitor on PNPi-induced DNA damage” value (SUIT2 SAMHD1 KO cells [1]; SUIT2 SAMHD1 knockout, 5 μM dG + 1 μM forodesine + 1 μM (R)-DI-82, 24 h) was “completely prevented” and the “effect of dCK inhibitor on PNPi anti-proliferative effect” value (SUIT2 SAMHD1 KO cells [2]; SUIT2 SAMHD1 knockout, 5 μM dG + 1 μM PNPi + 1 μM dCKi) was “completely blocked”.
In the case of O=c1[nH]cnc2c(CN3C[C@H](CO)[C@@H](O)C3)c[nH]c12 [ulodesine], the “proliferation (ulodesine)” value (HCC827 cells [3]; HCC827 (SAMHD1 deficient), 72 h, +5 μM dG) is reported as “selectively impaired the proliferation”, the IC50 (HCC827 cells [3]) is reported as 0.021 µM and the “proliferation (ulodesine)” value (JURKAT cells; JURKAT (SAMHD1 deficient), 72 h, +1 μM dG) is reported as “selectively impaired the proliferation”. For the same compound, the “proliferation (ulodesine)” value (CCRF-CEM cells [4]; CCRF-CEM (SAMHD1 deficient), 72 h, +1 μM dG) was “selectively impaired the proliferation”, the “proliferation (ulodesine)” value (NALM6 cells [5]) was “not exhibiting any activity” and the “proliferation (ulodesine)” value (SUIT2 cells [6]) was “not exhibiting any activity”. The “proliferation (ulodesine)” value (SUIT2 SAMHD1 KO cells [7]; SUIT2 CRISPR/Cas9 SAMHD1 knockout, +5 μM dG) was “sensitive” and the “proliferation (ulodesine)” value ([8]; CCRF-CEM overexpressing SAMHD1, 72 h, +1 μM dG) was “resistance”.
With NC(=S)N/N=C/c1ncccc1N [3-AP] the “selectivity for SAMHD1 KO over WT cells” value (SUIT2 SAMHD1 KO cells [7]; SUIT2 SAMHD1 KO vs WT) was “did not extend”.
In the case of Cc1cn([C@H]2C[C@H](O)[C@@H](CO)O2)c(=O)[nH]c1=O [thymidine], the “induction of pCHEK1S345 and pH2A.XS139” value (SUIT2 SAMHD1 KO cells [1]; SUIT2 SAMHD1 KO vs WT, 100 μM dT, 24 h) is reported as “enhanced”.
In the case of O=c1[nH]cnc2c([C@@H]3N[C@H](CO)[C@@H](O)[C@H]3O)c[nH]c12 [Forodesine], the IC50 (HCC827 cells [3]) is reported as 0.071 µM, the “anti-proliferative effect of the combination with dG” value (“anti-proliferative effect … with dG” for short) (JURKAT cells; JURKAT, 5 μM dG + 1 μM BCX-1777, 72 h) is reported as “eradicated” and the “proliferation with dC supplementation” value (CCRF-CEM cells [4]; CCRF-CEM YFP, 10 μM dG + 1 μM BCX-1777 + 1 μM dC, 72 h) is reported as 60 % of control. The proliferation (CCRF-CEM cells [4]; CCRF-CEM YFP, 10 μM dG + 1 μM BCX-1777, 72 h) was 1 % of control, the “anti-proliferative effect … with dG” value (CCRF-CEM cells [4]; CCRF-CEM, 5 μM dG + 1 μM BCX-1777, 72 h) was “eradicated” and the “anti-proliferative effect … with dG” value (MOLT-4 cells) was “eradicated”. For the same compound, the “anti-proliferative effect … with dG” value (B-ALL cell lines) was “unaffected”, the “anti-proliferative effect of PNPi” value ([8]; CCRF-CEM expressing SAMHD1, 5 μM dG + 1 μM BCX-1777, 72 h) was “completely resistant” and the “dC rescue of the anti-proliferative effect of PNPi” value [9] was “prevented this rescue”. The “percentage of sub-G1 cells (marker for cell death)” value (T-ALL cell lines) was “increase in the percentage of sub-G1 cells”, the “DNA damage (H2AXS139 phosphorylation)” value (CCRF-CEM cells [10]) was “induced DNA damage” and the “apoptosis (cleaved caspase 3 accumulation)” value (CCRF-CEM cells [10]) was “apoptosis”. For the same compound, the “DNA damage and apoptosis” value (NALM6 cells [11]) was “not in NALM6 cells”, the “cytotoxic effect of PNPi” value [12] was “completely resistant” and the cell cycle (HCC827 cells [13]) was “induced cell cycle arrest”. For the same compound, the “proliferation, crystal violet” value (HCC827 cells [14]) was “proliferation inhibition”, the “response to PNPi (DNA damage)” value (SUIT2 cells [15]) was “completely resistant” and the “DNA damage in response to PNPi” value (SUIT2 SAMHD1 KO cells [1]; SUIT2 SAMHD1 knockout, 5 μM dG + 1 μM forodesine, 24 h) was “exhibited DNA damage”. The “proliferation, crystal violet” value (SUIT2 SAMHD1 KO cells [2]; only SUIT2 SAMHD1 knockout cells, 5 μM dG + 1 μM PNPi) was “could be prevented”, the “proliferation, crystal violet” value [16] was “selectively inhibited proliferation” and the cell cycle [17] was “induced cell cycle arrest”.
